{"source": "patent US10653645B2", "about": "“Method for enhancing folding and transport of misfolded glucocerebrosidase” (The Hospital for Sick Children, priority 2007, dated 2020)", "key": {"[1]": {"biological_target": "T1, human beta-glucocerebrosidase (GCase, CEREZYME) (Homo sapiens, UniProt P04062, R534H)", "T1 sequence (P04062 40-536 R534H)": "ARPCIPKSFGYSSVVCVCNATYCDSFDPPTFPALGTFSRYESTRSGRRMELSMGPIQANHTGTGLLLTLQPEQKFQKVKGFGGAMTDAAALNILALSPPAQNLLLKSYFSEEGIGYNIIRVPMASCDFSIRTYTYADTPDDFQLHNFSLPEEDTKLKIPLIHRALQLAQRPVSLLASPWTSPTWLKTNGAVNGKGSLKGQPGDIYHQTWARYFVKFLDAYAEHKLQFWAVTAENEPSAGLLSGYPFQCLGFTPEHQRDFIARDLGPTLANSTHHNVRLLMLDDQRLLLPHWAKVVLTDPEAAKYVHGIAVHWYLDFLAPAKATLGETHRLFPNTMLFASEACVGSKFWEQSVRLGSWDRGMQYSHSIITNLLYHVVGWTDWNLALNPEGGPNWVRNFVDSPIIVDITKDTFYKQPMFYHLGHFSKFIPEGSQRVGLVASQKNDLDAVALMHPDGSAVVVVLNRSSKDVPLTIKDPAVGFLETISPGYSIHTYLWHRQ", "assay": "GCase activity fluorometric assay (inhibition, kinetics, pH dependence)", "description": "(§1) Experiments set forth herein and related to the activity and function of GCase in the presence and absence of compounds of the invention were conducted using imiglucerase (CEREZYME, Genzyme) as the GCase. Cellular materials were obtained from fibroblast lysates expressing wild-type GCase and separately from fibroblast lysates derived from Gaucher disease patient cell lines carrying genotypes that encode either the N370S/N370S or F213I/L444P substitutions in GCase.\n(§2) Quantitative determinations of enzymatic activity were performed by way of fluorometric assays utilizing the artificial substrate 4-methylumbelliferyl 2-acetamido-2-deoxy-beta-D-glucopyranoside (MUGlc). Reactions were performed at room temperature for 15-30 minutes, as indicated, using equal aliquots of enzyme (25 μL 20 mM Citrate Phosphate pH 5.5, 0.4% Taurodeoxycholate (TC)) and substrate (25 μL 20 mM Citrate Phosphate pH 5.5, MUGlc 1.6 mM). The amount of MU-fluorophore released in each assay was monitored fluorometrically using a spectrophotofluorometer following the addition of a 4-fold (200 μl) excess of 0.1M MAP, pH 10.5.\nThe activity of GCase was also assayed at several different pH values, including 4.5, 5.0, 5.5, 6.0, 6.5 and 7.0."}, "wild type (WT) GCase": {"biological_target": "T2, wild type (WT) GCase (Homo sapiens, UniProt P04062, R534H)", "T2 construct": "purchased Genzyme", "T2 sequence (P04062 40-536 R534H)": "T1 sequence (P04062 40-536 R534H)", "assay": "Heat denaturation of GCase at 50° C.", "type": "biochemical", "conditions": "for increase of the half life of GCase: 20 μM", "description": "as §1, §2"}, "[2]": {"tested_on": "Gaucher disease fibroblast cell lines harboring the N370S/N370S missense mutation", "assay": "Immunohistochemical fluorescence labeling, colocalization of GCase and Lamp-1", "type": "cell-based, human", "conditions": "N370S/N370S fibroblasts", "experimental": "Immunohistochemical fluorescence labeling of GD fibroblast cell lines harboring the N370S/N370S missense mutation were performed with rabbit polyclonal anti-GCase and mouse anti-Lamp-1 (lysosomal membrane associated protein). Cell nuclear staining was performed with 4′-6′-diamidino-2-phenylindole. […] (FIG. 6A, staining with anti-GCase in the presence of ABX; FIG. 6B, staining with anti-Lamp-1 in the presence of ABX; FIG. 6C, merger of FIGS. 6A and 6B; FIG. 6D, staining with anti-GCase in the presence of IFG; FIG. 6E, staining with anti-Lamp-1 in the presence of IFG; FIG. 6F, merger of FIGS. 6D and 6E; FIG. 6G, staining with anti-GCase in the absence of drug; FIG. 6H, staining with anti-Lamp-1 in the absence of drug; FIG. 6I, merger of FIGS. 6G and 6H.)\nImmunohistochemical fluorescence labeling of Gaucher disease fibroblast cell lines harboring the N370S/N370S missense mutation was performed with rabbit polyclonal anti-GCase and mouse anti-Lamp-1 (lysosomal membrane associated protein). Cell nuclear staining was performed with 4′-6′-diamidino-2-phenylindole. […] Restored activity and trafficking of mutant GCase are the ultimate goals of a pharmacological chaperone-based therapeutic strategy."}}, "note": "Read-outs that look alike come from different tables or passages of the source.", "data": [{"compound": "O=C(Nc1ccc(Br)cc1Br)c1ccccc1", "note": "[Dibromophenyl Benzamide]", "values": [{"measurement": "IC50", "setting": "[1]", "result": "> 1000", "unit": "µM"}]}, {"compound": "CCC(=O)Oc1c(Br)cc(Br)cc1Br", "note": "[Tribromophenyl Propanoate]", "values": [{"measurement": "IC50", "setting": "[1]", "result": "> 1000", "unit": "µM"}]}, {"compound": "Nc1c(Br)cc(Br)cc1CN[C@H]1CC[C@H](O)CC1", "note": "[Ambroxol, trans-4-(2-amino-3,5-dibromobenzylamino) cyclohexanol]", "values": [{"measurement": "increase of the half life of GCase", "setting": "wild type (WT) GCase", "result": "more than three-fold"}, {"measurement": "increase in GCase activity remaining after incubation", "setting": "wild type (WT) GCase; highest concentration of ambroxol, vs DMSO", "result": "more than three-fold"}, {"measurement": "Colocalization of GCase and Lamp-1 at the lysosome (rescue of mutant GCase trafficking)", "setting": "[2]", "result": "Colocalization of GCase and Lamp-1 occurs at the lysosome"}, {"measurement": "inhibition of GCase under acidic conditions", "setting": "[1]; 25 μM ambroxol, pH 4.5, 5.0, 5.5, 6.0, 6.5 and 7.0 assayed", "result": "only marginally inhibited"}, {"measurement": "mode of inhibition of GCase", "setting": "[1]; kinetic analysis", "result": "competitive inhibitor"}]}, {"compound": "OC[C@H]1CNC[C@@H](O)[C@@H]1O", "note": "[isofagomine]", "values": [{"measurement": "increase of the half life of GCase", "setting": "wild type (WT) GCase", "result": "more than three-fold"}]}, {"compound": "Nc1c(Br)cc(Br)cc1Br", "note": "[Tribromoaniline]", "values": [{"measurement": "IC50", "setting": "[1]; 0.3 mM MUbGlc as the substrate", "result": "Tribromoaniline (NI −1000)"}]}, {"compound": "CN(Cc1cc(Br)cc(Br)c1N)C1CCCCC1", "note": "[Bromhexine, 2-amino-3,5-dibromo-N-cyclohexyl-N-methylbenzenemethanamine]", "values": [{"measurement": "IC50", "setting": "[1]", "result": 60, "unit": "µM"}, {"measurement": "inhibitory activity compared with ambroxol", "setting": "[1]; Table 2 IC50 values", "result": "two fold reduction"}]}, {"compound": "Nc1ccc(Br)cc1Br", "note": "[Dibromoaniline]", "values": [{"measurement": "IC50", "setting": "[1]; 0.3 mM MUbGlc as the substrate", "result": "Dibromoaniline (NI −1000)"}]}]}
